For 18 compounds, MIC results are on record in ChEMBL document CHEMBL1147864, “Synthesis of new sugar derivatives from Stachys sieboldi Miq and antibacterial evaluation against Mycobacterium tuberculosis, Mycobacterium avium, and Staphylococcus aureus” (2007).

Converted amounts (≈) assume the structure as drawn.

Holding throughout (assay type): functional
Common to all, as to settings: 336 h

Experiment [1] has as its system Mycobacterium tuberculosis. As to the kind of experiment: Antibacterial activity against Mycobacterium tuberculosis H37Rv after 2 weeks by broth dilution method. On the technique in general: Dilution methods test growth across graded concentrations, often in twofold steps.
In experiment [2] the test system is Staphylococcus aureus. Put plainly: Antibacterial activity against Staphylococcus aureus after 2 weeks by broth dilution method.
Experiment [3] deals with Mycobacterium avium. As to the kind of experiment: Antibacterial activity against Mycobacterium avium 724S after 2 weeks by broth dilution method.
Experiment [4] has as its system Staphylococcus aureus. As to the kind of experiment: Antibacterial activity against methicillin-resistant Staphylococcus aureus 873 after 2 weeks by broth dilution method.
Experiment [5] deals with Staphylococcus aureus. Put plainly: Antibacterial activity against methicillin-resistant Staphylococcus aureus 906 after 2 weeks by broth dilution method.
The subject of experiment [6] is Staphylococcus aureus. Put plainly: Antibacterial activity against methicillin-resistant Staphylococcus aureus 908 after 2 weeks by broth dilution method.
Experiment [7] concerns Staphylococcus aureus. Put plainly: Antibacterial activity against methicillin-resistant Staphylococcus aureus 910 after 2 weeks by broth dilution method.
Experiment [8] deals with Mycobacterium tuberculosis. As to the kind of experiment: Antimycobacterial activity against Mycobacterium tuberculosis A-1-1 after 2 weeks by broth dilution method.
The subject of experiment [9] is Mycobacterium tuberculosis. As to the kind of experiment: Antimycobacterial activity against Mycobacterium tuberculosis A-1-2 after 2 weeks by broth dilution method.
In experiment [10] the test system is Mycobacterium tuberculosis. Put plainly: Antimycobacterial activity against Mycobacterium tuberculosis A-1-3 after 2 weeks by broth dilution method.
For experiment [11], the system named is Mycobacterium tuberculosis. As to the kind of experiment: Antimycobacterial activity against Mycobacterium tuberculosis A-2-5 after 2 weeks by broth dilution method.
The test system of experiment [12] is Mycobacterium tuberculosis. As to the kind of experiment: Antimycobacterial activity against Mycobacterium tuberculosis A-3-1 after 2 weeks by broth dilution method.
Experiment [13] deals with Mycobacterium tuberculosis. Put plainly: Antimycobacterial activity against Mycobacterium tuberculosis A-3-2 after 2 weeks by broth dilution method.
For experiment [14], the system named is Mycobacterium tuberculosis. As to the kind of experiment: Antimycobacterial activity against Mycobacterium tuberculosis A-3-5 after 2 weeks by broth dilution method.
Experiment [15] deals with Mycobacterium tuberculosis. As to the kind of experiment: Antimycobacterial activity against Mycobacterium tuberculosis A-3-6 after 2 weeks by broth dilution method.
Experiment [16] relates to Mycobacterium tuberculosis. Put plainly: Antimycobacterial activity against Mycobacterium tuberculosis A-3-9 after 2 weeks by broth dilution method.
The test system of experiment [17] is Mycobacterium tuberculosis. Put plainly: Antimycobacterial activity against Mycobacterium tuberculosis A-3-11 after 2 weeks by broth dilution method.
Experiment [18] concerns Mycobacterium tuberculosis. Put plainly: Antimycobacterial activity against Mycobacterium tuberculosis A-3-12 after 2 weeks by broth dilution method.
The subject of experiment [19] is Mycobacterium tuberculosis. As to the kind of experiment: Antimycobacterial activity against Mycobacterium tuberculosis A-3-15 after 2 weeks by broth dilution method.
The test system of experiment [20] is Mycobacterium tuberculosis. As to the kind of experiment: Antimycobacterial activity against Mycobacterium tuberculosis A-3-16 after 2 weeks by broth dilution method.
The subject of experiment [21] is Mycobacterium tuberculosis. As to the kind of experiment: Antimycobacterial activity against Mycobacterium tuberculosis A-3-17 after 2 weeks by broth dilution method.
The subject of experiment [22] is Mycobacterium tuberculosis. Put plainly: Antimycobacterial activity against Mycobacterium tuberculosis A-3-19 after 2 weeks by broth dilution method.
Experiment [23] has as its system Mycobacterium tuberculosis. Put plainly: Antimycobacterial activity against Mycobacterium tuberculosis A-3-20 after 2 weeks by broth dilution method.
In experiment [24] the test system is Mycobacterium tuberculosis. As to the kind of experiment: Antimycobacterial activity against Mycobacterium tuberculosis A-3-21 after 2 weeks by broth dilution method.
The subject of experiment [25] is Mycobacterium tuberculosis. Put plainly: Antimycobacterial activity against Mycobacterium tuberculosis A-3-22 after 2 weeks by broth dilution method.

One may read the MIC as the least concentration at which growth counts as inhibited. For the compound `OC[C@H](O)[C@@H](O)[C@H](O)[C@H](O)CO[C@H]1O[C@H](CO[C@H]2O[C@H](CO)[C@H](O)[C@H](O)[C@H]2O)[C@H](O)[C@H](O)[C@H]1O`, the minimal inhibitory concentration (MIC) in experiment [1] and in [2] was more than 800 µg/mL each time.
Take `CCCCO[C@@H]1O[C@H](CO[C@H]2O[C@H](CO[C@H]3O[C@H](COC(C)=O)[C@H](OC(C)=O)[C@H](OC(C)=O)[C@H]3OC(C)=O)[C@H](OC(C)=O)[C@H](OC(C)=O)[C@H]2OC(C)=O)[C@@H](OC(C)=O)[C@H](OC(C)=O)[C@H]1OC(C)=O`: the minimal inhibitory concentration (MIC) in experiment [1] and in [2] was more than 800 µg/mL throughout.
On to `C=CCO[C@@H]1O[C@H](CO[C@H]2O[C@H](CO[C@H]3O[C@H](COC(C)=O)[C@H](OC(C)=O)[C@H](OC(C)=O)[C@H]3OC(C)=O)[C@H](OC(C)=O)[C@H](OC(C)=O)[C@H]2OC(C)=O)[C@@H](OC(C)=O)[C@H](OC(C)=O)[C@H]1OC(C)=O`, for which the MIC in experiment [1] is 3.13 µg/mL (≈ 3.24 µM); in experiment [3], 3.13 µg/mL (≈ 3.24 µM); in experiment [2] it was 3.13 µg/mL (≈ 3.24 µM); in experiment [4], 3.77 µg/mL (≈ 3.91 µM); in experiment [5], 15.1 µg/mL (≈ 15.6 µM); in [6] (read-out: MIC) it was 7.54 µg/mL (≈ 7.81 µM). Further, the minimum inhibitory concentration (MIC) in experiment [7] turned out to be 15.1 µg/mL (≈ 15.6 µM); in experiment [8], 6.25 µg/mL (≈ 6.48 µM); in experiment [9], 6.25 µg/mL (≈ 6.48 µM); in experiment [10] it was 6.25 µg/mL (≈ 6.48 µM); in experiment [11], 12.5 µg/mL (≈ 13 µM); in [12] it was 25 µg/mL (≈ 25.9 µM). Further, the MIC in [13] was 25 µg/mL (≈ 25.9 µM); in experiment [14], 6.25 µg/mL (≈ 6.48 µM); in experiment [15], 6.25 µg/mL (≈ 6.48 µM); in experiment [16], 3.13 µg/mL (≈ 3.24 µM); in experiment [17] it was 3.13 µg/mL (≈ 3.24 µM); in [18], 6.25 µg/mL (≈ 6.48 µM). In addition, the MIC in [19] amounted to 3.13 µg/mL (≈ 3.24 µM); in [20], 6.25 µg/mL (≈ 6.48 µM); in experiment [21] it was 3.13 µg/mL (≈ 3.24 µM); in experiment [22] it was 3.13 µg/mL (≈ 3.24 µM); in [23] it was 6.25 µg/mL (≈ 6.48 µM); in experiment [24], 6.25 µg/mL (≈ 6.48 µM). The compound also gave an MIC in [25] of 3.13 µg/mL (≈ 3.24 µM).
Consider `CO[C@@H]1O[C@H](CO[C@H]2O[C@H](CO[C@H]3O[C@H](COC(C)=O)[C@H](OC(C)=O)[C@H](OC(C)=O)[C@H]3OC(C)=O)[C@H](OC(C)=O)[C@H](OC(C)=O)[C@H]2OC(C)=O)[C@@H](OC(C)=O)[C@H](OC(C)=O)[C@H]1OC(C)=O`, for which the MIC in experiment [1] and in [2] was more than 800 µg/mL throughout.
Take `C#CCO[C@@H]1O[C@H](CO[C@H]2O[C@H](CO[C@H]3O[C@H](COC(C)=O)[C@H](OC(C)=O)[C@H](OC(C)=O)[C@H]3OC(C)=O)[C@H](OC(C)=O)[C@H](OC(C)=O)[C@H]2OC(C)=O)[C@@H](OC(C)=O)[C@H](OC(C)=O)[C@H]1OC(C)=O`: the MIC in [1] and in experiment [2] was more than 800 µg/mL throughout.
Consider `C/C=C/CO[C@@H]1O[C@H](CO[C@H]2O[C@H](CO[C@H]3O[C@H](COC(C)=O)[C@H](OC(C)=O)[C@H](OC(C)=O)[C@H]3OC(C)=O)[C@H](OC(C)=O)[C@H](OC(C)=O)[C@H]2OC(C)=O)[C@@H](OC(C)=O)[C@H](OC(C)=O)[C@H]1OC(C)=O`, for which the MIC in experiment [1] and in experiment [2] was more than 400 µg/mL throughout.
For `C=CCO[C@H]1O[C@H](CO[C@H]2O[C@H](CO[C@H]3O[C@H](COC(C)=O)[C@H](OC(C)=O)[C@H](OC(C)=O)[C@H]3OC(C)=O)[C@H](OC(C)=O)[C@H](OC(C)=O)[C@H]2OC(C)=O)[C@@H](OC(C)=O)[C@H](OC(C)=O)[C@H]1OC(C)=O`, the MIC in experiment [1] and in experiment [2] was more than 800 µg/mL throughout.
On to `CCO[C@@H]1O[C@H](CO[C@H]2O[C@H](CO[C@H]3O[C@H](COC(C)=O)[C@H](OC(C)=O)[C@H](OC(C)=O)[C@H]3OC(C)=O)[C@H](OC(C)=O)[C@H](OC(C)=O)[C@H]2OC(C)=O)[C@@H](OC(C)=O)[C@H](OC(C)=O)[C@H]1OC(C)=O`, for which the MIC in experiment [1] and in experiment [2] was more than 800 µg/mL each time.
For `CCCO[C@@H]1O[C@H](CO[C@H]2O[C@H](CO[C@H]3O[C@H](COC(C)=O)[C@H](OC(C)=O)[C@H](OC(C)=O)[C@H]3OC(C)=O)[C@H](OC(C)=O)[C@H](OC(C)=O)[C@H]2OC(C)=O)[C@@H](OC(C)=O)[C@H](OC(C)=O)[C@H]1OC(C)=O`, the MIC in [1] and in [2] was more than 800 µg/mL each time.
In the case of `CC(=O)OC[C@H]1O[C@H](OC[C@H]2O[C@H](OC[C@H]3O[C@@H](OC(C)C)[C@H](OC(C)=O)[C@@H](OC(C)=O)[C@@H]3OC(C)=O)[C@H](OC(C)=O)[C@@H](OC(C)=O)[C@H]2OC(C)=O)[C@H](OC(C)=O)[C@@H](OC(C)=O)[C@H]1OC(C)=O`, the minimum inhibitory concentration (MIC) in experiment [1] and in experiment [2] was more than 800 µg/mL in each case.
For `C=CCO[C@@H]1O[C@H](CO[C@H]2O[C@H](CO[C@H]3O[C@H](CO)[C@H](O)[C@H](O)[C@H]3O)[C@H](O)[C@H](O)[C@H]2O)[C@@H](O)[C@H](O)[C@H]1O`, the MIC in experiment [1] was more than 100 µg/mL; in experiment [3] it was more than 100 µg/mL; in experiment [2], more than 100 µg/mL; in experiment [4], 100 µg/mL (≈ 184 µM); in experiment [5], more than 100 µg/mL; in experiment [6] (read-out: MIC), more than 100 µg/mL. The same compound gave an MIC in [7] of more than 100 µg/mL.
Regarding `CC(=O)OC[C@H](OC(C)=O)[C@@H](OC(C)=O)[C@H](OC(C)=O)[C@@H](CO[C@H]1O[C@H](CO[C@H]2O[C@H](COC(C)=O)[C@H](OC(C)=O)[C@H](OC(C)=O)[C@H]2OC(C)=O)[C@H](OC(C)=O)[C@H](OC(C)=O)[C@H]1OC(C)=O)OC(C)=O`, the MIC in experiment [1] and in [2] was more than 800 µg/mL throughout.
In the case of `CN[C@@H]1[C@H](O[C@H]2[C@H](O[C@H]3[C@H](O)[C@@H](O)[C@H](N=C(N)N)[C@@H](O)[C@@H]3N=C(N)N)O[C@@H](C)[C@]2(O)C=O)O[C@@H](CO)[C@H](O)[C@H]1O` (stereo in doubt) [STREPTOMYCIN], the MIC was 0.2 µg/mL (≈ 0.344 µM) in experiment [1]; 0.4 µg/mL (≈ 0.688 µM) in experiment [3]; 100 µg/mL (≈ 172 µM) in experiment [2]; more than 100 µg/mL in experiment [4]; 100 µg/mL (≈ 172 µM) in experiment [5].
`C=CCO` [ALLYL ALCOHOL]: the MIC in [1] and in experiment [2] was more than 400 µg/mL in each case.
Turning to `C=CCN=C=S` [ALLYL ISOTHIOCYANATE], the MIC in experiment [1] and in [2] was more than 800 µg/mL each time.
Regarding `CC[C@@H](CO)NCCN[C@@H](CC)CO` [ETHAMBUTOL], the MIC in experiment [1] is 1.25 µg/mL (≈ 6.12 µM); in experiment [3], 3 µg/mL (≈ 14.7 µM); in experiment [2] it was more than 100 µg/mL; in experiment [4] it was more than 100 µg/mL; in [5], more than 100 µg/mL; in experiment [6] (read-out: MIC), more than 100 µg/mL. Besides, the MIC in [7] was more than 100 µg/mL.
For `NNC(=O)c1ccncc1` [ISONIAZID], the MIC was 0.075 µg/mL (≈ 0.547 µM) in experiment [1]; 12.5 µg/mL (≈ 91.1 µM) in [3]; more than 100 µg/mL in experiment [2]; more than 100 µg/mL in experiment [4]; more than 100 µg/mL in experiment [6] (read-out: MIC); more than 100 µg/mL in [7].
In the case of `CO[C@H]1/C=C/O[C@@]2(C)Oc3c(C)c(O)c4c(O)c(c(/C=N/N5CCN(C)CC5)c(O)c4c3C2=O)NC(=O)/C(C)=C\C=C\[C@H](C)[C@H](O)[C@@H](C)[C@@H](O)[C@@H](C)[C@H](OC(C)=O)[C@@H]1C` [RIFAMPIN], the MIC in experiment [1] was more than 0.008 µg/mL; in experiment [3], 0.004 µg/mL (≈ 0.00486 µM); in experiment [2] it was 0.004 µg/mL (≈ 0.00486 µM); in [4] it was 0.004 µg/mL (≈ 0.00486 µM); in [5] it was 0.004 µg/mL (≈ 0.00486 µM); in experiment [6], 0.004 µg/mL (≈ 0.00486 µM). Also, the minimum inhibitory concentration (MIC) in experiment [7] came to 0.004 µg/mL (≈ 0.00486 µM).
